IC50 data for 51 compounds are collected here from patent publication US11198695B2, “Fused ring derivative having MGAT-2 inhibitory activity” (Shionogi & Co., Ltd., priority 2017, dated 2021).

The target in this experiment is recombinant human MGAT2 (Homo sapiens (Human), UniProt Q3SYC2). Kind of experiment: Measurement of human MGAT2 inhibitory activity. Format: biochemical. Particulars: read-out: IC50 (concentration exhibiting 50% enzyme inhibition), Table 52. As to the method: A full-length human MGAT2 gene to which a Flag-tag had been added at the N-terminal was inserted into pFastBac (from Invitrogen). A recombinant baculovirus was produced in accordance with the protocol for a Bac-to-Bac baculovirus expression system (produced by Invitrogen), and Sf-9 cells were infected therewith. The cells were collected and sonicated, and then the membrane fraction was collected through centrifugation. Western blotting analysis with an anti-Flag antibody was performed for the membrane fraction to confirm expression, and the membrane fraction was used as a recombinant human MGAT2 enzyme solution.
recombinant human MGAT2, sequence (Q3SYC2 whole entry): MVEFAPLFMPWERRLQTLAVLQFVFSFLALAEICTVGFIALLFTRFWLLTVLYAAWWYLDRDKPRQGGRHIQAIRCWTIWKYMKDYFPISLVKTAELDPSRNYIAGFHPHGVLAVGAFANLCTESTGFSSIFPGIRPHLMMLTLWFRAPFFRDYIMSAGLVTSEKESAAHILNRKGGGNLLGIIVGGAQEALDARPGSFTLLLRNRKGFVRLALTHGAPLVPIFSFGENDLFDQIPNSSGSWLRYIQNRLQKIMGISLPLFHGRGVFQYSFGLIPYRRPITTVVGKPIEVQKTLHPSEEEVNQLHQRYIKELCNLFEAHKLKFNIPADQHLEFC
Solutions of the compounds of the present invention in DMSO were each aliquoted into 0.2-μL portions in a 384-well polystyrene microplate produced by Corning Incorporated, and 5 μL of an enzyme solution prepared with an assay buffer (100 mmol/L phosphate buffer (pH 7.4) containing 2 mmol/L DTT) and 5 μL of a substrate solution (100 mmol/L phosphate buffer (pH 7.4), 30 μmol/L 2-Oleoylglycerol, 10 μmol/L Oleoyl-CoA) were added thereto, and the resultant was stirred and centrifuged, and incubated in a moist chamber at room temperature for 1 hour. After enzymatic reaction, 50 μL of a quenching solution (containing 0.2 μmol/L Diolein-d5, 0.4% formic acid, and 50% isopropanol) containing Internal Standard (IS) was added to terminate the reaction, and the resultant was sealed in a plate produced by Shimadzu GLC Ltd., and then stirred and centrifuged, and measurement was performed by using an electrospray ionization method with a RapidFire360 and Agilent 6550 Q-TOF mass spectrometer. Diolein as a reaction product (P) of 2-Oleoylglycerol as the substrate and an ammonium adduct ion of the IS were detected, and the peak intensity ratio, P/IS, was calculated from the peak heights to evaluate the inhibitory activity. Inhibitory activities with/without addition of enzyme were defined as Control (+)/Control (−), respectively, and the respective % inhibitions were defined as 0% inhibition and 100% inhibition. The inhibitory activity was calculated from formula below with TIBCO Spotfire (produced by TIBCO Software Inc.): Inhibitory activity (%)=[1−{Sample−Control(−)}/{Control(+)−Control(−)}]*100 where Sample indicates a peak intensity ratio: P/IS, when the compound of the present invention was added.
`CS(=O)(=O)CC(=O)Nc1c2c(nn1CCCc1ccccc1)C[C@]1(CCc3cc(OCCCC(F)(F)F)ccc31)NC2=O` [Compound I-50]: the IC50 amounted to 190 nM.

For `CCCCn1nc2c(c1NC(=O)CS(C)(=O)=O)C(=O)N[C@@]1(CCc3cc(OCCCC(F)(F)F)ccc31)C2` [Compound I-51], the IC50 amounted to 16 nM.

Turning to `CS(=O)(=O)CC(=O)Nc1c2c(nn1CCc1ccccc1)C[C@]1(CCc3cc(OCCCC(F)(F)F)ccc31)NC2=O` [Compound I-52], the IC50 came to 24 nM.

In the case of `CS(=O)(=O)CC(=O)Nc1c2c(nn1CCOCC(F)F)C[C@]1(CCc3cc(OCCCC(F)(F)F)ccc31)NC2=O` [Compound I-53], the IC50 came out at 13 nM.

Consider `CCCn1nc2c(c1NC(=O)CS(C)(=O)=O)C(=O)N[C@@]1(CCc3cc(OCCCC(F)(F)F)ccc31)C2` [Compound I-54], for which the IC50 was 48 nM.

For `CS(=O)(=O)CC(=O)Nc1c2c(nn1CC1CCCO1)C[C@]1(CCc3cc(OCCCC(F)(F)F)ccc31)NC2=O` (stereo partly drawn) [Compound I-56], the IC50 was 25 nM.

Take `CS(=O)(=O)CC(=O)Nc1c2c(nn1CCC1CCCCC1)C[C@]1(CCc3cc(OCCCC(F)(F)F)ccc31)NC2=O` [Compound I-57]: the IC50 amounted to 10 nM.

With `COCCCn1nc2c(c1NC(=O)CS(C)(=O)=O)C(=O)N[C@@]1(CCc3cc(OCCCC(F)(F)F)ccc31)C2` [Compound I-58], the IC50 was 5.5 nM.

Take `CS(=O)(=O)CC(=O)Nc1c2c(nn1CCn1cccn1)C[C@]1(CCc3cc(OCCCC(F)(F)F)ccc31)NC2=O` [Compound I-59]: the IC50 amounted to 14 nM.

For the compound `CS(=O)(=O)CC(=O)Nc1c2c(nn1CCOC(F)(F)F)C[C@]1(CCc3cc(OCCCC(F)(F)F)ccc31)NC2=O` [Compound I-60], the IC50 worked out at 94 nM.

As for `CS(=O)(=O)CC(=O)Nc1c2c(nn1CC1CCC(C(F)(F)F)CC1)C[C@]1(CCc3cc(OCCCC(F)(F)F)ccc31)NC2=O` (stereo partly drawn) [Compound I-61], the IC50 came to 340 nM.

Take `CS(=O)(=O)CC(=O)Nc1nn(CCCc2ccccc2)c2c1C(=O)N[C@@]1(CCc3cc(OCCCC(F)(F)F)ccc31)C2` [Compound I-62]: the IC50 turned out to be 250 nM.

Turning to `CCCCn1nc(NC(=O)CS(C)(=O)=O)c2c1C[C@]1(CCc3cc(OCCCC(F)(F)F)ccc31)NC2=O` [Compound I-63], the IC50 amounted to 400 nM.

For the compound `CS(=O)(=O)CC(=O)Nc1nn(CCOCC(F)F)c2c1C(=O)N[C@@]1(CCc3cc(OCCCC(F)(F)F)ccc31)C2` [Compound I-64], the IC50 was 410 nM.

Consider `CS(=O)(=O)CC(=O)Nc1nn(CCC2CCCCC2)c2c1C(=O)N[C@@]1(CCc3cc(OCCCC(F)(F)F)ccc31)C2` [Compound I-65], for which the IC50 worked out at 660 nM.

Regarding `CS(=O)(=O)CC(=O)Nc1nn(CCn2cccn2)c2c1C(=O)N[C@@]1(CCc3cc(OCCCC(F)(F)F)ccc31)C2` [Compound I-66], the IC50 is 970 nM.

For `O=C1N[C@@]2(CCc3cc(OCC(F)(F)F)ccc32)Cc2nn(CCC3CC3)c(C(=O)NC3CS(=O)(=O)C3)c21` [Compound I-68], the IC50 stood at 760 nM.

On to `CC(C)(O)CCn1nc2c(c1NC(=O)CS(C)(=O)=O)C(=O)N[C@@]1(CCc3cc(OCCCC(F)(F)F)ccc31)C2` [Compound I-69], for which the IC50 came to 55 nM.

`CS(=O)(=O)CC(=O)Nc1c2c(nn1CCC1CC1)C[C@](c1ccc(OCC(F)(F)F)cc1)(C(F)(F)F)NC2=O` [Compound I-70]: the IC50 was determined as 54 nM.

For `CS(=O)(=O)CC(=O)Nc1c2c(nn1CCC1CC1)C[C@@]1(CCc3cc(OCC(F)(F)F)ccc31)NC2=O` [Compound I-71], the IC50 was determined as 3.9 nM.

As for `O=C1N[C@@]2(CCc3cc(OCCCC(F)(F)F)ccc32)Cc2nn(CCC3CC3)c(C(=O)NS(=O)(=O)C3CC3)c21` [Compound I-72], the IC50 is 8.3 nM.

In the case of `CS(=O)(=O)CC(=O)Nc1nn(CC2CCC(C(F)(F)F)CC2)c2c1C(=O)N[C@@]1(CCc3cc(OCCCC(F)(F)F)ccc31)C2` (stereo partly drawn) [Compound I-73], the IC50 was determined as 290 nM.

Consider `Cc1cccc(Cn2nc(NC(=O)CS(C)(=O)=O)c3c2C[C@]2(CCc4cc(OCCCC(F)(F)F)ccc42)NC3=O)c1` [Compound I-74], for which the IC50 turned out to be 520 nM.

As to `Cc1ccccc1Cn1nc(NC(=O)CS(C)(=O)=O)c2c1C[C@]1(CCc3cc(OCCCC(F)(F)F)ccc31)NC2=O` [Compound I-75], the IC50 was 580 nM.

For `CS(=O)(=O)CC(=O)Nc1c2c(nn1C1CCCC1)C[C@]1(CCc3cc(OCC(F)(F)F)ccc31)NC2=O` [Compound I-76], the IC50 amounted to 95.5 nM.

Take `CS(=O)(=O)CC(=O)Nc1c2c(nn1-c1ccc(Cl)cn1)C[C@]1(CCc3cc(OCC(F)(F)F)ccc31)NC2=O` [Compound I-77]: the IC50 turned out to be 1 nM.

Consider `O=C(Nc1c2c(nn1CCC1CC1)C[C@]1(CCc3cc(OCC(F)(F)F)ccc31)NC2=O)c1cccnc1` [Compound I-78], for which the IC50 is 37.5 nM.

For the compound `O=C(Nc1c2c(nn1CCC1CC1)C[C@]1(CCc3cc(OCC(F)(F)F)ccc31)NC2=O)c1ccccn1` [Compound I-79], the IC50 stood at 860 nM.

Regarding `O=C(Nc1c2c(nn1CCC1CC1)C[C@]1(CCc3cc(OCC(F)(F)F)ccc31)NC2=O)c1ccncc1` [Compound I-80], the IC50 is 16 nM.

In the case of `O=C(Nc1c2c(nn1CCC1CC1)C[C@]1(CCc3cc(OCC(F)(F)F)ccc31)NC2=O)c1cccnn1` [Compound I-81], the IC50 was 240 nM.

For `O=C1N[C@@]2(CCc3cc(OCC(F)(F)F)ccc32)Cc2nn(CCC3CC3)c(CNC(=O)C3CCCC3)c21` [Compound I-82], the IC50 was found to be 230 nM.

In the case of `CC1(C(=O)NCc2c3c(nn2CCC2CC2)C[C@]2(CCc4cc(OCC(F)(F)F)ccc42)NC3=O)COC1` [Compound I-83], the IC50 came to 110 nM.

For `N#CCNC(=O)c1c2c(nn1CCC1CC1)C[C@]1(CCc3cc(OCC(F)(F)F)ccc31)NC2=O` [Compound I-84], the IC50 is 430 nM.

As for `O=C1N[C@@]2(CCc3cc(OCC(F)(F)F)ccc32)Cc2nn(CCC3CC3)c(C(=O)NCCO)c21` [Compound I-85], the IC50 is 570 nM.

Turning to `O=C1N[C@@]2(CCc3cc(OCC(F)(F)F)ccc32)Cc2nn(CCC3CC3)c(C(=O)NC3CCOC3)c21` (stereo partly drawn) [Compound I-86], the IC50 turned out to be 960 nM.

As for `CS(=O)(=O)CCNC(=O)c1c2c(nn1CCC1CC1)C[C@]1(CCc3cc(OCC(F)(F)F)ccc31)NC2=O` [Compound I-87], the IC50 was determined as 440 nM.

For the compound `CC1(NC(=O)c2c3c(nn2CCC2CC2)C[C@]2(CCc4cc(OCC(F)(F)F)ccc42)NC3=O)COC1` [Compound I-88], the IC50 came to 270 nM.

Take `O=C1N[C@@]2(CCc3cc(OCC(F)(F)F)ccc32)Cc2nn(CCC3CC3)c(C(=O)NCC3(CO)COC3)c21` [Compound I-89]: the IC50 turned out to be 55 nM.

Consider `O=C1N[C@@]2(CCc3cc(OCC(F)(F)F)ccc32)Cc2nn(CCC3CC3)c(C(=O)NCC3(O)CCC3)c21` [Compound I-90], for which the IC50 was 33 nM.

As for `CS(=O)(=O)CC(=O)Nc1c2c(nn1-c1ccc(Br)cn1)C[C@]1(CCc3cc(OCC(F)(F)F)ccc31)NC2=O` [Compound I-91], the IC50 was determined as 1.2 nM.

For `Cc1cc(C(=O)Nc2c3c(nn2CCC2CC2)C[C@]2(CCc4cc(OCC(F)(F)F)ccc42)NC3=O)on1` [Compound I-92], the IC50 amounted to 73 nM.

For `CS(=O)(=O)CC(=O)Nc1c2c(nn1CCC1CC1)C[C@]1(CCc3cc(C#N)ccc31)NC2=O` [Compound I-93], the IC50 amounted to 160 nM.

As to `CS(=O)(=O)CC(=O)Nc1c2c(nn1CCC1CC1)C[C@]1(CCc3cc(OCC(F)(F)F)cc(F)c31)NC2=O` [Compound I-94], the IC50 amounted to 3.7 nM.

For the compound `CS(=O)(=O)CC(=O)Nc1c2c(nn1-c1ccc(C(F)(F)F)cc1)C[C@]1(CCc3cc(OCC(F)(F)F)ccc31)NC2=O` [Compound I-95], the IC50 was 5.1 nM.

In the case of `CS(=O)(=O)CC(=O)Nc1c2c(nn1C1CCCCC1)C[C@]1(CCc3cc(OCC(F)(F)F)ccc31)NC2=O` [Compound I-96], the IC50 is 54 nM.

Take `Cc1ccc(-n2nc3c(c2NC(=O)CS(C)(=O)=O)C(=O)N[C@@]2(CCc4cc(OCC(F)(F)F)ccc42)C3)cc1` [Compound I-97]: the IC50 is 6.9 nM.

Take `Cc1cccc(-n2nc3c(c2NC(=O)CS(C)(=O)=O)C(=O)N[C@@]2(CCc4cc(OCC(F)(F)F)ccc42)C3)c1` [Compound I-98]: the IC50 was 8.5 nM.

On to `CS(=O)(=O)CC(=O)Nc1c2c(nn1-c1ccc(F)cc1)C[C@]1(CCc3cc(OCC(F)(F)F)ccc31)NC2=O` [Compound I-99], for which the IC50 worked out at 6.2 nM.

`COc1ccc(-n2nc3c(c2NC(=O)CS(C)(=O)=O)C(=O)N[C@@]2(CCc4cc(OCC(F)(F)F)ccc42)C3)cc1` [Compound I-100]: the IC50 was 32 nM.

Turning to `CS(=O)(=O)CC(=O)Nc1c2c(nn1-c1ccccn1)C[C@]1(CCc3cc(OCC(F)(F)F)ccc31)NC2=O` [Compound I-101], the IC50 turned out to be 17 nM.

Turning to `CS(=O)(=O)CC(=O)Nc1c2c(nn1CCC1CC1)C[C@]1(CCc3cc(NCC(F)(F)F)ccc31)NC2=O` [Compound I-102], the IC50 was found to be 25 nM.
